According to patent publication US20260070922A1, “PYRAZOLE AND IMIDAZOLE DERIVATIVES AS DUAL OREXIN AND KAPPA-OPIOID RECEPTORS MODULATORS COMPOSITION, METHODS FOR TREATING NEUROLOGICAL AND PSYCHIATRIC DISORDERS” (HAGER BIOSCIENCES, LLC, priority 2022, published 2026):

Tests used:
[1] = target: T1, human k-opioid receptor (kOR) (Homo sapiens, UniProt P41145); experiment: Human k-opioid (KOP) receptor (agonist radioligand [3H]U-69593) binding assay, transfected RBL cell membranes; conditions: second value of IC50/Ki cell
T1 construct: expressed in transfected cells; host or cells: RBL cells (membrane homogenates)
T1 sequence (P41145 whole entry): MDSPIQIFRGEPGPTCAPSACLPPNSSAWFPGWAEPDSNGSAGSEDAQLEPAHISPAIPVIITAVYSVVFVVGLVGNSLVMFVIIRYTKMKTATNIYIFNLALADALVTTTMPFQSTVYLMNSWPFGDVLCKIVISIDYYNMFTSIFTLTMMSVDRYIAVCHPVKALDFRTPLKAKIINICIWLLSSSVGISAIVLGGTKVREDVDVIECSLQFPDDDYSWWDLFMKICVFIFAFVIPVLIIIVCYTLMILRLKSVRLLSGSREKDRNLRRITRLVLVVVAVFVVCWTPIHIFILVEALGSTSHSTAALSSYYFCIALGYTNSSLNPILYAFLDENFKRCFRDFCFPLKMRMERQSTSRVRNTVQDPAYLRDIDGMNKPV

[2] = target: T1, human k-opioid receptor (kOR); experiment: as above; conditions: for IC50: first value of IC50/Ki cell; for inhibition at 1 µM: read-out: KOR % Inh. @ 1 uM
Method in brief: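 Membranes from transfected RBL cells (~80 μg protein) incubated 60 min at 22° C with 0.5 nM [3H]U-69593 in 50 mM Tris-HCl pH 7.4, 10 mM MgCl2, 1 mM EDTA. Nonspecific binding defined with 10 μM naloxone; filtration and scintillation counting. Values are percent inhibition of specific radioligand binding.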

[3] = target: T2, Orexin type 1 (OX1R) receptor (Homo sapiens, UniProt O43613); experiment: In vitro orexin antagonism assay: intracellular calcium measurement (FLIPR), orexin-A 3 nM as agonist; assay type: cell-based; conditions: for inhibition at 1 µM: read-out: OX1R, % Inh. @ 1 uM; for IC50: first value of IC50/Kb cell; for Kb: second value of IC50/Kb cell
T2 construct: expressed in transfected cells; host or cells: CHO cells (G418 selection)
T2 sequence (O43613 1-425): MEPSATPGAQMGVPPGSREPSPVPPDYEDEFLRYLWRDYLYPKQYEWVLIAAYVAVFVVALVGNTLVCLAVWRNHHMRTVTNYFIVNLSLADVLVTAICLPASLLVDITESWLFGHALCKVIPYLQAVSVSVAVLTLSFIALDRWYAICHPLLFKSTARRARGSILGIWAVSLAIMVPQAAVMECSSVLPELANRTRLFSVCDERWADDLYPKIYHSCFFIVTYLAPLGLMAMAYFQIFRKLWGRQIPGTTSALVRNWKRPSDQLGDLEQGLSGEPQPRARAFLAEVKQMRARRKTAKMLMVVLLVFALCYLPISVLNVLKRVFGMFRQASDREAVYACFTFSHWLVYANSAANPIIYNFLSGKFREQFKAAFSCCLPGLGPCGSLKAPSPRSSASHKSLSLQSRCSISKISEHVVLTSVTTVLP
Method in brief: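 CHO cells expressing the human orexin receptor were loaded with 3 μM fluo-4 AM plus 5 mM probenecid, then exposed to antagonist for 120 min before 3 nM orexin-A (final) was added on a FLIPR.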

[4] = target: T3, human orexin-2 receptor (OX2R) (Homo sapiens, UniProt O43614); experiment: as above; assay type: cell-based; conditions: for inhibition at 1 µM: read-out: OX2R, % Inh. @ 1 uM; for Kb: second value of IC50/Kb cell; for IC50: first value of IC50/Kb cell
T3 construct: expressed in transfected cells; host or cells: CHO cells (G418 selection)
T3 sequence (O43614 1-444): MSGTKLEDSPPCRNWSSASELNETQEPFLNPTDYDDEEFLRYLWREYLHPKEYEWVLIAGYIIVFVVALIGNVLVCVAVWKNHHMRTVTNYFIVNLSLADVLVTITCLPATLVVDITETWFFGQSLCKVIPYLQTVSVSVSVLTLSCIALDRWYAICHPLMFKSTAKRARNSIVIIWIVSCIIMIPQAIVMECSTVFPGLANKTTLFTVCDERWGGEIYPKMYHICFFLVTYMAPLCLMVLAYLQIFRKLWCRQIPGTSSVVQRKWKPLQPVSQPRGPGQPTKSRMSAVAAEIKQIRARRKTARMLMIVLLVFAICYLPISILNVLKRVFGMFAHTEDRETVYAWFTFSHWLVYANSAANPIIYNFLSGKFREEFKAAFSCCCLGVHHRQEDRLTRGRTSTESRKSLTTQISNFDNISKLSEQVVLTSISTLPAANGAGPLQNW
Method in brief: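 CHO cells stably expressing human OX1R or OX2R, loaded with fluo-4 AM (3 μM, 5 mM probenecid) for 50 min at 37 °C, then 30 min at RT. Antagonist preincubated 120 min before 3 nM orexin-A; FLIPR fluorescence peak height vs vehicle gives IC50, possibly normalized to on-plate reference; geometric mean of repeats.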

Ki [1]	IC50 [2]	inhibition at 1 µM [2]	inhibition at 1 µM [3]	inhibition at 1 µM [4]	IC50 [3]	Kb [3]	Kb [4]	IC50 [4]	SMILES	OX1R, % Inh. @ 1 uM ([3]; @ 1 uM)	KOR % Inh. @ 1 uM ([2]; @ 1 uM)	OX2R, % Inh. @ 1 uM ([4]; @ 1 uM)
854 nM	1560 nM	52%							CCc1cnc(NC[C@@H]2[C@H](C)CCCN2C(=O)c2c(-c3ccccc3)nn3ccccc23)nc1 [Example 4]			
799 nM	1470 nM	35%							C[C@@H]1CCCN(C(=O)c2c(-c3ccccc3)nn3c2COCC3)[C@@H]1CNc1ccc(C(F)(F)F)cn1 [Example 7]			
1080 nM	1980 nM	38%	100%	21.4%					C[C@@H]1CCCN(C(=O)c2c(-c3ccccc3)nc3ccccn23)[C@@H]1CNc1ccc(C(F)(F)F)cn1 [Example 8]			
3340 nM	6130 nM	26%			4 nM	1 nM			O=C(c1c(-c2ccccc2)nn2ccccc12)N1CCC[C@H]1CNc1ccc(C(F)(F)F)cn1 [Example 10]			
549 nM	1010 nM	56%		98.5%			10 nM		O=C(c1c(-c2ccccc2)nn2ccccc12)N1CCC[C@H]1Cn1ccc(-c2ccccc2)n1 [Example 13]			
1910 nM	3500 nM	33%							O=C(c1c(-c2ccccc2)nn2ccccc12)N1CCC[C@H]1COc1ccc(C(F)(F)F)cn1 [Example 20]			
630 nM	1100 nM	52%	98%	60.1%	5 nM	1 nM			O=C(c1c(-c2ccccc2)nn2ccccc12)N1CCCC[C@H]1COc1ccc(C(F)(F)F)cn1 [Example 24]			
400 nM	730 nM	57%	79.8%	1.8%	53 nM	11 nM			C[C@@H]1CCCN(C(=O)c2c(-c3ccccc3)nc3ncccn23)[C@@H]1CNc1ccc(C(F)(F)F)cn1 [Example 34]			
400 nM	740 nM	59%	98.4%	7.1%	29 nM	6 nM			C[C@@H]1CCCN(C(=O)c2c(-c3ccc(F)cc3)nn3ccccc23)[C@@H]1CNc1ccc(C(F)(F)F)cn1 [Example 40]			
		3%	58%	16%	2400 nM	510 nM			O=C(c1nn2c(c1-c1ccccc1)COCC2)N1[C@@H]2CC[C@@H](C2)[C@H]1COc1ccc(C(F)(F)F)cn1 [Example 152]			
		0%	90%	35%	190 nM	40 nM			O=C(c1c(-c2ncccn2)nn2ccccc12)N1[C@@H]2CC[C@@H](C2)[C@H]1COc1ccc(C(F)(F)F)cn1 [Example 153]			
		23%	83%	5%	520 nM	110 nM			C[C@@]1(Cn2ccc(-c3ccccn3)n2)CCCN1C(=O)c1nn2c(c1-c1ccccc1)COCC2 [Example 154]			
		12%	69%	25%	410 nM	87 nM			O=C(c1c(-c2ncccn2)nn2ccccc12)N1CCC[C@H]1Cc1nc(-c2ccccn2)no1 [Example 155]			
		6%	97%	50%	23 nM	5 nM			O=C(c1c(-c2ccccn2)nn2ccccc12)N1CCC[C@H]1Cc1nc(-c2ccccn2)no1 [Example 156]			
		7%	100%	16%	190 nM	39 nM			C[C@@]1(COc2ccc(C(F)(F)F)cn2)CCCN1C(=O)c1nn2c(c1-c1ccccc1)OCCC2 [Example 157]			
		2%	93%	46%	120 nM	26 nM			C[C@@]1(COc2ccc(C(F)(F)F)cn2)CCCN1C(=O)c1c(-c2ccccc2)nn2cccnc12 [Example 158]			
		0%	100%	26%	10 nM	2 nM			[2H]C1([2H])CC[C@@]([2H])(COc2ccc(C(F)(F)F)cn2)N1C(=O)c1nn2c(c1-c1ccccc1)COCC2 [Example 171]			
		4%	100%	40%					O=C(c1nn2ccccc2c1-c1ccccn1)N1CCC[C@H]1COc1ccc(C(F)(F)F)cn1 [Example 172]			
		3%	100%	82%	8 nM	2 nM	45 nM	260 nM	O=C(c1nn2ccccc2c1-c1ccccn1)N1CCC[C@H]1Cn1cc(-c2ccccn2)cn1 [Example 173]			
		0%	100%	56%	5 nM	0.9 nM			O=C(c1nn2ccccc2c1-c1ccccn1)N1CCC[C@H]1Cn1ccc(-c2ccccn2)n1 [Example 174]			
		53%	92%	95%	4 nM	0.8 nM	3 nM	15 nM	[2H]C1([2H])CC[C@@]([2H])(Cn2ccc(-c3ccc(F)cc3)n2)N1C(=O)c1c(-c2ncccn2)nn2ccccc12 [Example 178]			
		0%	91%	39%	40 nM	9 nM			O=C(c1nc2ccccn2c1-c1ccccn1)N1CCC[C@H]1Cn1cc(-c2ccccn2)cn1 [Example 181]			
		0%	94%	67%	38 nM	9 nM			O=C(c1nn2ccccc2c1-c1ccccn1)N1CCC[C@H]1Cn1cc(-c2ccc(F)cn2)cn1 [Example 183]			
		3%	86%	65%	21 nM	4 nM			O=C(c1nn2cccnc2c1-c1ccccn1)N1CCC[C@H]1Cn1cc(-c2ccccn2)cn1 [Example 186]			
		0%	100%	34%	14 nM	3 nM			O=C(c1nn2cccnc2c1-c1ccccn1)N1C(Cn2ccc(-c3ccc(F)cn3)n2)C[C@@H]2C[C@@H]21 (some centres unmarked) [Example 187]			
		0%	89%	82%			31 nM	180 nM	O=C(c1nn2cccnc2c1-c1ccccn1)N1CCC[C@H]1Cn1cc(-c2ccc(F)cn2)cn1 [Example 194]			
		2%	97%	39%	31 nM	7 nM			O=C(c1nn2c(c1-c1ccccn1)OCCC2)N1CCC[C@H]1Cn1cc(-c2ccccn2)cn1 [Example 197]			
		3%	87%	14%	64 nM	14 nM			O=C(c1nn2c(c1-c1ccccn1)OCCC2)N1[C@H](Cn2ccc(-c3ccc(F)cn3)n2)C[C@@H]2C[C@@H]21 [Example 202]			
		0%	100%	52%	39 nM	8 nM			O=C(c1nc2ccccn2c1-c1ccccn1)N1CCC[C@H]1Cn1cc(-c2ccc(F)cn2)cn1 [Example 208]			

SMILES	Ki [1]	IC50 [2]	inhibition at 1 µM [2]	inhibition at 1 µM [3]	inhibition at 1 µM [4]	IC50 [3]	Kb [3]	Kb [4]	IC50 [4]	OX1R, % Inh. @ 1 uM ([3]; @ 1 uM)	KOR % Inh. @ 1 uM ([2]; @ 1 uM)	OX2R, % Inh. @ 1 uM ([4]; @ 1 uM)
O=C(c1nn2c(c1-c1ccccn1)COCC2)N1CCC[C@H]1Cn1cc(-c2ccc(F)cn2)cn1 [Example 198]						140 nM	29 nM			84%	8%	50%
